Numbers after ± are expanded uncertainties.
What was measured:
[1] = Liquid; for mass density: 101.33 kPa, Pycnometric method; for viscosity / speed of sound: 101.3 kPa; for viscosity: Capillary tube (Ostwald / Ubbelohde) method; for speed of sound: Linear variable-path acoustic interferometer; for Normal boiling temperature: Distillation
[2] = xn = mol fraction of the nth substance listed; conditions: 303.15 K, 101 kPa, Liquid; for viscosity: Capillary tube (Ostwald / Ubbelohde) method; for excess molar volume: Direct dilatometry; for speed of sound: Linear variable-path acoustic interferometer

c1ccc2c(c1)CCCC2 [1,2,3,4-tetrahydronaphthalene]
[1]
Conditions	mass density [kg/m3]	speed of sound [m/s]	viscosity [mPa·s]
298.15 K	965.89 ± 0.91	–	–
303.15 K	955.44 ± 0.9	1477 ± 5	1.749 ± 0.017

Conditions	Normal boiling temperature [°C]
[1]	208.30 ± 0.1

c1ccc2c(c1)CCCC2 [1,2,3,4-tetrahydronaphthalene] + CC(C)OC(C)C
[2]
Conditions	excess molar volume [m3/mol]	speed of sound [m/s]	viscosity [mPa·s]
x2 = 0	–	1477 ± 5	1.749 ± 0.017
x2 = 0.1358	-7.08e-07 ± 8e-09	1396.1 ± 4.5	1.445 ± 0.014
x2 = 0.2509	-1.135e-06 ± 9e-09	1342.5 ± 4.4	1.223 ± 0.012
x2 = 0.3997	-1.459e-06 ± 9e-09	1276.3 ± 4.2	0.976 ± 0.01
x2 = 0.4474	-1.505e-06 ± 9e-09	1253 ± 4.1	0.904 ± 0.009
x2 = 0.5718	-1.503e-06 ± 9e-09	1191.8 ± 3.9	0.739 ± 0.007
x2 = 0.7163	-1.261e-06 ± 9e-09	1119.7 ± 3.7	0.578 ± 0.006
x2 = 0.8473	-8.13e-07 ± 8e-09	1054.2 ± 3.5	0.46 ± 0.005

CC(C)CC(C)(C)C [2,2,4-trimethylpentane]
[1], 303.15 K
Conditions	speed of sound [m/s]	viscosity [mPa·s]
–	1060.8 ± 3.5	0.455 ± 0.005

CC(C)CC(C)(C)C [2,2,4-trimethylpentane] + CC(C)OC(C)C
[2], x2 = 0
Conditions	speed of sound [m/s]	viscosity [mPa·s]
–	1060.8 ± 3.5	0.455 ± 0.005

c1ccccc1 [benzene]
[1]
Conditions	mass density [kg/m3]	speed of sound [m/s]	viscosity [mPa·s]
298.15 K	873.64 ± 0.8	–	–
303.15 K	868.39 ± 0.9	1275.5 ± 4.2	0.566 ± 0.006

Conditions	Normal boiling temperature [°C]
[1]	80.00 ± 0.1

c1ccccc1 [benzene] + CC(C)OC(C)C
[2], x2 = 0
Conditions	speed of sound [m/s]	viscosity [mPa·s]
–	1275.5 ± 4.2	0.566 ± 0.006

C1CCCCC1 [cyclohexane]
[1]
Conditions	mass density [kg/m3]	speed of sound [m/s]	viscosity [mPa·s]
298.15 K	773.98 ± 1	–	–
303.15 K	769.14 ± 0.99	1231 ± 4	0.793 ± 0.008

Conditions	Normal boiling temperature [°C]
[1]	80.80 ± 0.1

C1CCCCC1 [cyclohexane] + CC(C)OC(C)C
[2], x2 = 0
Conditions	speed of sound [m/s]	viscosity [mPa·s]
–	1231 ± 4	0.793 ± 0.008

C1CCC2CCCCC2C1 (centres undefined) [decahydronaphthalene]
[1]
Conditions	mass density [kg/m3]	speed of sound [m/s]	viscosity [mPa·s]
298.15 K	879.14 ± 0.74	–	–
303.15 K	868.5 ± 0.74	1404 ± 5	2.091 ± 0.021

Conditions	Normal boiling temperature [°C]
[1]	191.10 ± 0.1

C1CCC2CCCCC2C1 (centres undefined) [decahydronaphthalene] + CC(C)OC(C)C
[2]
Conditions	excess molar volume [m3/mol]	speed of sound [m/s]	viscosity [mPa·s]
x2 = 0	–	1404 ± 5	2.091 ± 0.021
x2 = 0.1596	-4e-07 ± 8e-09	1329 ± 4	1.586 ± 0.015
x2 = 0.2785	-6.03e-07 ± 8e-09	1282.3 ± 4.2	1.289 ± 0.013
x2 = 0.4286	-7.39e-07 ± 8e-09	1220.1 ± 4	0.989 ± 0.01
x2 = 0.4734	-7.6e-07 ± 8e-09	1199.7 ± 3.9	0.913 ± 0.009
x2 = 0.6153	-7.24e-07 ± 8e-09	1141.3 ± 3.8	0.706 ± 0.007
x2 = 0.7514	-5.84e-07 ± 8e-09	1084.9 ± 3.6	0.553 ± 0.006
x2 = 0.8663	-3.59e-07 ± 8e-09	1035.8 ± 3.4	0.448 ± 0.005

CC(C)OC(C)C [diisopropyl ether]
[1]
Conditions	mass density [kg/m3]	speed of sound [m/s]	viscosity [mPa·s]
298.15 K	718.14 ± 0.74	–	–
303.15 K	711.97 ± 0.67	974.9 ± 3.3	0.35 ± 0.004

Conditions	Normal boiling temperature [°C]
[1]	68.20 ± 0.1

CC(C)OC(C)C [diisopropyl ether] + C1CCC2CCCCC2C1
[2], x1 = 1
Conditions	speed of sound [m/s]	viscosity [mPa·s]
–	974.9 ± 3.3	0.35 ± 0.004

CC(C)OC(C)C [diisopropyl ether] + C1CCCCC1
[2]
Conditions	excess molar volume [m3/mol]	speed of sound [m/s]	viscosity [mPa·s]
x1 = 0.118	3.2e-08 ± 8e-09	1187.4 ± 3.9	0.666 ± 0.007
x1 = 0.2172	4.7e-08 ± 8e-09	1157.7 ± 3.8	0.589 ± 0.006
x1 = 0.357	6.3e-08 ± 8e-09	1117.9 ± 3.7	0.513 ± 0.005
x1 = 0.3972	6.6e-08 ± 8e-09	1106.9 ± 3.7	0.494 ± 0.005
x1 = 0.5029	6.9e-08 ± 8e-09	1080.7 ± 3.6	0.452 ± 0.005
x1 = 0.6777	6.3e-08 ± 8e-09	1041.6 ± 3.5	0.403 ± 0.004
x1 = 0.8199	3.9e-08 ± 8e-09	1011.6 ± 3.4	0.373 ± 0.004
x1 = 1	–	974.9 ± 3.3	0.35 ± 0.004

CC(C)OC(C)C [diisopropyl ether] + CC(C)CC(C)(C)C
[2]
Conditions	excess molar volume [m3/mol]	speed of sound [m/s]	viscosity [mPa·s]
x1 = 0.1561	1.43e-07 ± 8e-09	1047.6 ± 3.5	0.441 ± 0.005
x1 = 0.2397	2.09e-07 ± 8e-09	1040.4 ± 3.5	0.432 ± 0.005
x1 = 0.3083	2.28e-07 ± 8e-09	1034.5 ± 3.4	0.422 ± 0.005
x1 = 0.4565	2.79e-07 ± 8e-09	1022.6 ± 3.4	0.405 ± 0.004
x1 = 0.4804	2.75e-07 ± 8e-09	1019.7 ± 3.4	0.4 ± 0.004
x1 = 0.6222	2.5e-07 ± 8e-09	1007.5 ± 3.4	0.38 ± 0.004
x1 = 0.8133	1.54e-07 ± 8e-09	991.1 ± 3.3	0.36 ± 0.004
x1 = 0.8775	1.24e-07 ± 8e-09	985.6 ± 3.3	0.355 ± 0.004
x1 = 1	–	974.9 ± 3.3	0.35 ± 0.004

CC(C)OC(C)C [diisopropyl ether] + CCCCCC
[2]
Conditions	excess molar volume [m3/mol]	speed of sound [m/s]	viscosity [mPa·s]
x1 = 0.1305	1.37e-07 ± 8e-09	1039.2 ± 3.5	0.312 ± 0.004
x1 = 0.2555	2.45e-07 ± 8e-09	1027.5 ± 3.4	0.315 ± 0.004
x1 = 0.392	3.26e-07 ± 8e-09	1016 ± 3	0.319 ± 0.004
x1 = 0.4661	3.44e-07 ± 8e-09	1009.9 ± 3.4	0.321 ± 0.004
x1 = 0.5633	3.34e-07 ± 8e-09	1002.6 ± 3.3	0.325 ± 0.004
x1 = 0.605	3.25e-07 ± 8e-09	999.6 ± 3.3	0.326 ± 0.004
x1 = 0.7173	2.79e-07 ± 8e-09	992.4 ± 3.3	0.331 ± 0.004
x1 = 0.846	1.74e-07 ± 8e-09	984.4 ± 3.3	0.338 ± 0.004
x1 = 1	–	974.9 ± 3.3	0.35 ± 0.004

CC(C)OC(C)C [diisopropyl ether] + CCCCCCC
[2]
Conditions	excess molar volume [m3/mol]	speed of sound [m/s]	viscosity [mPa·s]
x1 = 0.1462	1.67e-07 ± 8e-09	1090.7 ± 3.6	0.385 ± 0.004
x1 = 0.2667	2.45e-07 ± 8e-09	1072.8 ± 3.6	0.377 ± 0.004
x1 = 0.4165	3.16e-07 ± 8e-09	1050.6 ± 3.5	0.365 ± 0.004
x1 = 0.4774	3.24e-07 ± 8e-09	1041.8 ± 3.5	0.359 ± 0.004
x1 = 0.5331	3.27e-07 ± 8e-09	1033.9 ± 3.4	0.356 ± 0.004
x1 = 0.6068	3.01e-07 ± 8e-09	1023.9 ± 3.4	0.352 ± 0.004
x1 = 0.7371	2.61e-07 ± 8e-09	1006.9 ± 3.4	0.346 ± 0.004
x1 = 0.8642	1.73e-07 ± 8e-09	991.3 ± 3.3	0.345 ± 0.004
x1 = 1	–	974.9 ± 3.3	0.35 ± 0.004

CC(C)OC(C)C [diisopropyl ether] + CCCCCCCC
[2]
Conditions	excess molar volume [m3/mol]	speed of sound [m/s]	viscosity [mPa·s]
x1 = 0.165	1.58e-07 ± 8e-09	1125.5 ± 3.7	0.464 ± 0.005
x1 = 0.2501	2.26e-07 ± 8e-09	1112.3 ± 3.7	0.451 ± 0.005
x1 = 0.3816	2.95e-07 ± 8e-09	1090.5 ± 3.6	0.429 ± 0.005
x1 = 0.4395	3.04e-07 ± 8e-09	1080.3 ± 3.6	0.417 ± 0.005
x1 = 0.4911	3.02e-07 ± 8e-09	1071.7 ± 3.5	0.404 ± 0.004
x1 = 0.6217	2.78e-07 ± 8e-09	1048.3 ± 3.5	0.381 ± 0.004
x1 = 0.7805	2.03e-07 ± 8e-09	1018.9 ± 3.4	0.36 ± 0.004
x1 = 0.8706	1.26e-07 ± 8e-09	1000.4 ± 3.3	0.354 ± 0.004
x1 = 1	–	974.9 ± 3.3	0.35 ± 0.004

CC(C)OC(C)C [diisopropyl ether] + c1ccc2c(c1)CCCC2
[2], x1 = 1
Conditions	speed of sound [m/s]	viscosity [mPa·s]
–	974.9 ± 3.3	0.35 ± 0.004

CC(C)OC(C)C [diisopropyl ether] + c1ccccc1
[2]
Conditions	excess molar volume [m3/mol]	speed of sound [m/s]	viscosity [mPa·s]
x1 = 0.0962	-1.61e-07 ± 8e-09	1232.1 ± 4	0.542 ± 0.006
x1 = 0.1813	-2.87e-07 ± 8e-09	1201.5 ± 3.9	0.522 ± 0.005
x1 = 0.3084	-4.17e-07 ± 8e-09	1159.2 ± 3.8	0.492 ± 0.005
x1 = 0.3375	-4.42e-07 ± 8e-09	1148.4 ± 3.8	0.486 ± 0.005
x1 = 0.4703	-4.86e-07 ± 8e-09	1108.5 ± 3.7	0.456 ± 0.005
x1 = 0.6323	-4.62e-07 ± 8e-09	1064.1 ± 3.5	0.422 ± 0.005
x1 = 0.7927	-3.32e-07 ± 8e-09	1022.2 ± 3.4	0.389 ± 0.004
x1 = 1	–	974.9 ± 3.3	0.35 ± 0.004

CCCCCCC [heptane]
[1]
Conditions	mass density [kg/m3]	speed of sound [m/s]	viscosity [mPa·s]
298.15 K	678.93 ± 0.72	–	–
303.15 K	674.38 ± 0.71	1110.5 ± 3.7	0.387 ± 0.004

Conditions	Normal boiling temperature [°C]
[1]	98.20 ± 0.1

CCCCCCC [heptane] + CC(C)OC(C)C
[2], x2 = 0
Conditions	speed of sound [m/s]	viscosity [mPa·s]
–	1110.5 ± 3.7	0.387 ± 0.004

CCCCCC [hexane]
[1]
Conditions	mass density [kg/m3]	speed of sound [m/s]	viscosity [mPa·s]
298.15 K	654.9 ± 0.7	–	–
303.15 K	650.64 ± 0.7	1052.9 ± 3.5	0.309 ± 0.004

Conditions	Normal boiling temperature [°C]
[1]	68.70 ± 0.1

CCCCCC [hexane] + CC(C)OC(C)C
[2], x2 = 0
Conditions	speed of sound [m/s]	viscosity [mPa·s]
–	1052.9 ± 3.5	0.309 ± 0.004

CCCCCCCC [octane]
[1]
Conditions	mass density [kg/m3]	speed of sound [m/s]	viscosity [mPa·s]
298.15 K	697.36 ± 0.73	–	–
303.15 K	692.56 ± 0.7	1152 ± 4	0.477 ± 0.005

Conditions	Normal boiling temperature [°C]
[1]	126.00 ± 0.1

CCCCCCCC [octane] + CC(C)OC(C)C
[2], x2 = 0
Conditions	speed of sound [m/s]	viscosity [mPa·s]
–	1152 ± 4	0.477 ± 0.005
